Common to all, as to experiment: growth of human tumour cells (NCI), 48 h
For test [1], the system named is EKVX NSCLC.
The test system of test [2] is IGROV1 ovarian.
The subject of test [3] is SK-OV-3 ovarian.
Test [4] relates to MDA-MB-435.
For test [5], the system named is TK-10 renal.
Test [6] deals with SF-539 CNS.
Test [7] deals with A549 NSCLC.
The test system of test [8] is HL-60(TB) leukemia.
Test [9] relates to SK-MEL-2 melanoma.
The test system of test [10] is MDA-MB-231 breast.

“And” between values parts separate entries of the source, which are not always exact repeats. Identical values can stand only once.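 Five concentrations, 48 hours, 96-well plates. Here, GI50 denotes the concentration required for 50% inhibition of growth. Definition used: TGI = concentration required for complete inhibition of growth.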

In the case of `CC(C)(C)[Si](C)(C)OC1[C@@H](O[Si](C)(C)C(C)(C)C)[C@@H](CNC(=O)NC(=O)NC(=O)CCl)O[C@H]1n1cnc2c(NC(=O)Nc3ccccc3)ncnc21` (stereo not given in full), the GI50 in test [1] was 1.69 µM; in test [2], 0.361 µM; in [3], 9.51 µM; in test [4] it was 6.61 µM; in [5], 2.42 µM; in test [6] it was 8.82 µM. The GI50 was 2.26 µM in test [7], 1.45 µM in test [8], 8.62 µM in test [9] and 1.31 µM in test [10]. Besides, the TGI in test [1] worked out at 6.54 µM; in test [2], 1.33 µM; in [3], 17.5 µM; in test [4], 17.6 µM; in test [5] it was 7.81 µM; in test [6], 16.1 µM. Besides, the TGI in test [7] came to 8.92 µM; in test [8] it was 3.22 µM; in test [9], 17.6 µM; in [10], 3.76 µM.
Regarding `CCC1(OC(=O)CNC)C(=O)OCc2c1cc1n(c2=O)Cc2cc3ccccc3nc2-1` (stereo not given), the TGI in test [1] was 17 µM; in [2] it was 2.21 µM; in test [3] it was 0.152 µM; in test [4] it was 0.279 µM; in test [5], 30.4 µM; in test [6], less than 0.0203 µM. In addition, the TGI in test [7] was determined as 0.958 µM; in [8], 0.159 µM; in [9], 0.577 µM; in test [10] it was 3.94 µM.
As to `O=C(NCCCl)NCCN1c2nc3ccccc3cc2Sc2cc3ccccc3nc21`, the GI50 in test [1] was 3.45 µM; in test [2] it was 0.71 µM; in test [3], 4.41 µM; in test [4], 1.57 µM; in test [5], 7.12 µM; in [6], 3.14 µM. In addition, the GI50 in test [7] is 4.64 µM; in test [8], 1.71 µM; in test [9], 2.21 µM; in test [10] it was 2.71 µM. Moreover, the TGI in test [1] was greater than 44.1 µM; in test [2], 25.3 µM; in test [3], greater than 44.3 µM; in test [4] it was 11.1 µM; in test [5] it was 28.1 µM; in test [6] it was 17.7 µM. The TGI was 23.1 µM in test [7], 5.12 µM in [8], 8.53 µM in test [9] and 17.8 µM in test [10].
As to `O=C(/C=C\c1cc(Br)ccc1O)/C=C/c1cc(Br)ccc1O`, the GI50 in [1] was 1.54 µM; in test [2] it was 1.6 µM; in test [3], 4.41 µM; in [4], 0.355 µM; in [5], 2.05 µM; in [6], 1.47 µM. The GI50 in [7] was 2.61 µM; in test [8], 0.385 µM; in test [9] it was 2.25 µM; in [10], 0.372 µM. Moreover, the TGI is 3.18 µM in test [1]; 3.62 µM in [2]; 12.3 µM in [3]; 1.53 µM in test [4]; 4.03 µM in [5]; 3.35 µM in test [6]. Further, the TGI in test [7] stood at 13.5 µM; in [8], 4.26 µM; in test [9], 6.15 µM; in test [10] it was 4.07 µM.
As to `[N-]=[N+]=NCCCn1c2c(c3ccc([N+](=O)[O-])cc3c1=O)C(=O)c1cc(I)ccc1-2`, the GI50 in test [1] is 22 µM; in test [2], 1.95 µM; in test [3], 2.11 µM; in test [4], 34.3 µM; in test [5], 71.9 µM; in test [6] it was 2.23 µM. The GI50 in test [7] is 8.06 µM; in test [8], 3.79 µM; in test [9], 71.2 µM; in [10], greater than 100 µM. The TGI was greater than 100 µM in test [1]; 65.5 µM in [2]; 8.74 µM in [3]; greater than 100 µM in test [4]; greater than 100 µM in [5]; 8.51 µM in [6]. Also, the TGI in [7] is greater than 100 µM; in [8] it was 26.3 µM; in test [9] it was greater than 100 µM; in [10], greater than 100 µM.
As to `O=C(CN1CCN(CCN2C(=O)c3cccc4cccc(c34)C2=O)CC1)Nc1ccc2ncsc2c1`, the GI50 was 9.79 µM in test [1]; 7.91 µM in [2]; 8.35 µM in [3]; 5.52 µM in test [4]; 10.5 µM in [5]; 6.43 µM in test [6]. For the same compound, the GI50 in [7] is 3.58 µM; in test [8], 10.2 µM; in test [9], 6.49 µM; in test [10], greater than 100 µM. Further, the TGI in test [1] is 39.2 µM; in test [2], greater than 100 µM; in [3] it was 23.3 µM; in [4], 20.4 µM; in test [5], 23.7 µM; in test [6], 20.5 µM. For the same compound, the TGI was 15.4 µM in test [7], 27.5 µM in [8], 23.6 µM in test [9] and greater than 100 µM in [10].
With `CC(=O)N(C)c1cc(NCc2ccccc2)ccc1OCc1ccccc1`, the TGI in test [1] was found to be 42.3 µM; in [2], 30.5 µM; in [3], 43.1 µM; in test [4], 32.2 µM; in [5], 33.5 µM; in [6], 32 µM. For the same compound, the TGI in test [7] was found to be 36.7 µM; in test [8], 77.9 µM; in [9], 30.8 µM; in [10], 30.2 µM.
In the case of `CC(C)n1nc(C#Cc2cccc(O)c2)c2c(N)ncnc21`, the GI50 in test [1] is 9.41 µM and 7.49 µM; in test [2], 0.856 µM; in test [3], 0.978 µM and 1.01 µM; in [4], 0.882 µM and 0.655 µM; in test [5], 2.57 µM and 2.03 µM; in [6], 0.815 µM and 0.282 µM. The GI50 in test [7] was 2.62 µM and 3.17 µM; in test [8], 0.832 µM and 0.217 µM; in test [9], 0.721 µM and 0.751 µM; in test [10], 0.508 µM and 0.0966 µM. Moreover, the TGI was 29 µM and 25.7 µM in [1]; 2.24 µM in [2]; 3.67 µM in test [3]; 5.5 µM and 5.03 µM in [4]; 10.1 µM and 5.05 µM in test [5]; 3.57 µM and 1.65 µM in [6]. In addition, the TGI in test [7] was 18.3 µM and 14.6 µM; in test [8] it was 10.8 µM and 20.2 µM; in test [9], 2.69 µM and 3.11 µM; in test [10] it was 2.07 µM and 2.15 µM.
